The source of these data is patent publication US20120121540A1 (priority 2007, published 2012).

The conditions of data set [1]: patients treated at currently recommended doses; cited from earlier work.
Data set [2] can be described thus: HCV replicon assay (luciferase reporter, ET cell line). The data set is classed as cell-based. As to conditions: Hepatitis C virus, HCV replicon luciferase activity in ET cells. An outline of the steps:
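ET cells carry a stable luciferase-ubiquitin-neo/NS3-5B subgenomic HCV replicon with adaptive mutations. Compounds (0.1 nM to […], 0.5% DMSO) were added 24 h after plating, and luciferase was read 48-72 h later. EC50 came from 10-point 2-fold dilutions fitted to a Hill equation; TC50 was measured in parallel by WST-1.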
On the technique in general: In antiviral work, replicon cells carry a viral genome segment that copies itself.

As to `NC(=O)c1ncn([C@@H]2O[C@H](CO)[C@@H](O)[C@H]2O)n1` [Ribavirin, ribavirin], the “patients with significant hemolysis” value in data set [1] is 10-20%.

In general, inhibition refers to the percentage by which the read-out fell short of the control. Low readings indicate a response near the control, high ones a response far below the control. `O=C(c1nc2c(C(F)(F)F)cc(-c3ccco3)cn2c1Cl)N1CCC(Cc2ccccc2)C1` (stereo not drawn) [Compound 326, (3-Benzyl-pyrrolidin-1-yl)-(3-chloro-6-furan-2-yl-8-trifluoromethyl-imidazo[1,2-a]pyridin-2-yl)-methanone] returned an inhibition at 10 µM in data set [2] of 66.7%.

In data set [2], `O=C(c1nc2c(C(F)(F)F)cc(-c3ccoc3)cn2c1Cl)N1CCC(n2cc(-c3ccccc3)[nH]c2=O)CC1` [Compound 553, 1-[1-(3-Chloro-6-furan-3-yl-8-trifluoromethyl-imidazo[1,2-a]pyridine-2-carbonyl)-piperidin-4-yl]-4-phenyl-1,3-dihydro-imidazol-2-one] had an inhibition at 10 µM of 43.6%.
